Assay results taken from patent US20260176262A1, “KRAS INHIBITORS, PREPARATION METHOD THEREFOR, AND PHARMACEUTICAL USE THEREOF” (ABBISKO THERAPEUTICS CO., LTD., priority 2021, published 2026).
Read-outs that look alike come from different tables or passages of the source.

Tests used:
[1] = target: KRAS^G12D/cRAF (Homo sapiens, UniProt P01116, G12D); assay: KRAS G12D/cRAF binding test (Alphalisa); conditions: His-tagged KRAS G12D + GMPPNP, GST-tagged cRAF
Protocol: The compound was dissolved in 100% DMSO at a starting concentration of 5 mM and diluted in DMSO with a 3-fold serial dilution method for a total of 8 concentration points. 1 μL of the compound or DMSO at each concentration point was added into 99 μL of the experimental buffer to obtain 10× stock solution.
• 1) 4 μL of the working mixture solution of His-tagged KRAS^G12D and GMPPNP was added to the 384-well plate. • 2) The 10× compound stock solution or 1% DMSO was added to the 384-well plate. • 3) The plate was centrifuged at 1000 rpm for 1 minute. • 4) 4 μL of GST-tagged cRAF solution was added to the 384-well plate. • 5) The plate was centrifuged at 1000 rpm for 1 minute. • 6) The plate was incubated at room temperature for 15 minutes. • 7) 10 μL of detection working solution was added to the 384-well plate. • 8) The plate was centrifuged at 1000 rpm for 1 minute. • 9) The plate was incubated at room temperature for 60 minutes. • 10) The 384-well plate was placed into Envision and assay data was obtained.
(§1) The ratio for each compound concentration was calculated from the signal of the DMSO control group contained in each assay plate and the Alphalisa signal in each compound well. The compound concentration required for inhibitory concentration at 50% (IC50) was determined using a four-parameter logarithmic dose-response equation by testing the concentration of the compound and the value of the ratio. The endpoint value (IC50) of the reference compound was assessed in each experiment as a quality control measure. If the endpoint value is within three times the expected value, the experiment may be considered acceptable.

[2] = tested on: AGS cell; assay: Anti-proliferative 2D CTG assay, AGS cells; type: cell-based; conditions: AGS cells, incubated 3 days, CTG, read-out: AGS cell IC50
Protocol: When the cell confluence was about 80%, the cells were isolated with 0.25% trypsin. Isolated cells were resuspended in 5 mL fresh cell culture medium and centrifuged for cell collection. Meanwhile, the number of cells was also calculated. The cells were then suspended in culture medium of medium concentration. The cells were placed into a 96-well plate with 1000 cells/well for AGS and 1000 cells/well for GP2D. The 96-well plate was placed in an incubator at 37° C. and incubated overnight.
1.2 Day 1 Compound Treatment From the 10 mM stock solution, with a ratio of 1:5, 10-point serial dilutions were performed. The 10× medium containing the compound was transferred into corresponding wells of the 96 wells. The final maximum compound concentration was […] and the final DMSO concentration was 0.1%. The 96-well plate was placed in a 37° C. incubator, the AGS cells were incubated for 3 days, and the GP2D cells were incubated for 4 days.
50 μL/well of detection reagent (CTG) was added to the AGS cells, and the signal was read in an Envision machine.
as §1, with “The percent inhibition (%) at” for “The ratio for”, “signal in” for “signal of”, “the HPE and ZPE” for “the DMSO”, “control wells and the fluorescence signal in the individual compound wells included” for “control group contained”, “assay plate. […]” for “assay plate and the Alphalisa signal in each compound well.”, “the inhibition percentage value.” for “the value of the ratio.”

[3] = Pharmacokinetic experiment in mice; conditions: male, ICR, mouse, plasma
Protocol: ICR mice male N=3 original source: Shanghai Sippr-Bk Lab Animal Co., Ltd.
Single oral (PO) administration in ICR mice: The compounds were weighed and added to the solvent of 0.5% CMC+1% Tween 80 respectively, well shaken, and ultrasonicated to get a light yellow suspension. 3 mice were administered orally after fasting overnight. The dose was 10 mg/kg.
About 90 μL/timepoint blood was collected through the orbital cavity, anticoagulated with sodium heparin, placed on ice after collection, and centrifuged to separate the plasma within 1 hour (centrifugation conditions: 8000 rpm, 6 m 2-8C). The blood collection timepoints were 0, 0.25, 0.5, 1, 2, 4, 6, 8 and 24 h. The samples were stored in a −20° C. refrigerator.
The plasma sample was 40 μL, 160 μL of ice-cold acetonitrile containing internal standard was added, vortexed for 1 minute, and centrifuged at 18,000 rpm for 10 minutes. The supernatant was transferred to a 96-well plate, and 5 μL was injected into LC-MS/MS for analysis.

[4] = Homo sapiens, 72 h, class symbols
[5] = Homo sapiens, 72 h, numeric values

Sequence of KRAS^G12D/cRAF (P01116 1-188 isoform P01116-2 G12D): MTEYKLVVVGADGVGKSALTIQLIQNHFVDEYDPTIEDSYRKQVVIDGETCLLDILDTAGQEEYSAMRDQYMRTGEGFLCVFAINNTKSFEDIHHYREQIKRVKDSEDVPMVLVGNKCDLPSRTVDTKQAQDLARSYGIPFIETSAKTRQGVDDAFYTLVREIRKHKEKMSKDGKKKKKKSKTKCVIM

| Compound | IC50 ([1]; class symbols) | IC50 [2, 4] | IC50 ([1]; numeric values) | IC50 [2, 5] | also measured |
| --- | --- | --- | --- | --- | --- |
| [2H]C([2H])([2H])C12CCC(CN(c3nc(OC[C@@]45CCCN4C[C@H](F)C5)nc4c(F)c(-c5cc(O)cc6ccc(F)c(C#C)c56)nc(C)c34)C1)N2 (stereo partly drawn) [Example 40, 5-ethynyl-6-fluoro-4-(8-fluoro-2-(((2R,7aS)-2-fluorotetrahydro-1H-pyrrolizin-7a(5H)-yl)methoxy)-5-methyl-4-(1-(methyl-d3)-3,8-diazabicyclo[3.2.1]octan-3-yl)pyrido[4,3-d]pyrimidin-7-yl)naphthalen-2-ol] | < 50 nM | < 50 nM |  |  |  |
| C#Cc1c(F)ccc2cc(O)cc(-c3ncc4c(N5C[C@H]6CC[C@@](C)(C5)N6)nc(OC[C@@]56CCCN5C[C@H](F)C6)nc4c3F)c12 [Example 44] |  |  | 19 nM |  | IC50 ([2]; numeric values): 6.1 nM |
| C#Cc1c(F)ccc2cc(O)cc(-c3ncc4c(N5C[C@@H]6CC[C@](COC)(C5)N6)nc(OC[C@@]56CCCN5C[C@H](F)C6)nc4c3F)c12 [Example 46, 5-ethynyl-6-fluoro-4-(8-fluoro-2-(((2R,7aS)-2-fluorotetrahydro-1H-pyrrolizin-7a(5H)-yl)methoxy)-4-((1R,5S)-1-(methoxymethyl)-3,8-diazabicyclo[3.2.1]octan-3-yl)pyrido[4,3-d]pyrimidin-7-yl)naphthalen-2-ol] | 50 to 500 nM | < 50 nM |  |  |  |
| [2H]C([2H])([2H])OC[C@]12CC[C@]([2H])(CN(c3nc(OC[C@@]45CCCN4C[C@H](F)C5)nc4c(F)c(-c5cc(O)cc6ccc(F)c(C#C)c56)ncc34)C1)N2 [Example 47, 5-ethynyl-6-fluoro-4-(8-fluoro-2-(((2R,7aS)-2-fluorotetrahydro-1H-pyrrolizin-7a(5H)-yl)methoxy)-4-((1S,5R)-1-((methoxy-d3)methyl)-3,8-diazabicyclo[3.2.1]octan-3-yl-5-d)pyrido[4,3-d]pyrimidin-7-yl)naphthalen-2-ol] | 50 to 500 nM | 50 to 500 nM |  |  |  |
| [2H]C([2H])([2H])OC[C@@]12CC[C@@]([2H])(CN(c3nc(OC[C@@]45CCCN4C[C@H](F)C5)nc4c(F)c(-c5cc(O)cc6ccc(F)c(C#C)c56)ncc34)C1)N2 [Example 48, 5-ethynyl-6-fluoro-4-(8-fluoro-2-(((2R,7aS)-2-fluorotetrahydro-1H-pyrrolizin-7a(5H)-yl)methoxy)-4-((1R,5S)-1-((methoxy-d3)methyl)-3,8-diazabicyclo[3.2.1]octan-3-yl-5-d)pyrido[4,3-d]pyrimidin-7-yl)naphthalen-2-ol] | > 500 nM | < 50 nM |  |  |  |
| [2H]C([2H])([2H])OC[C@]12CC[C@H](CN(c3nc(OC[C@@]45CCCN4C[C@H](F)C5)nc4c(F)c(-c5cc(O)cc6ccc(F)c(C#C)c56)nc(OC)c34)C1)N2 [Example 49, 5-ethynyl-6-fluoro-4-(8-fluoro-2-(((2R,7aS)-2-fluorotetrahydro-1H-pyrrolizin-7a(5H)-yl)methoxy)-5-methoxy-4-((1S,5R)-1-((methoxy-d3)methyl)-3,8-diazabicyclo[3.2.1]octan-3-yl)pyrido[4,3-d]pyrimidin-7-yl)naphthalen-2-ol] |  |  | 262 nM | 288 nM |  |
| [2H]C([2H])([2H])OC[C@]12CC[C@H](CN(c3nc(OC[C@@]45CCCN4C[C@H](F)C5)nc4c(F)c(-c5cc(O)cc6ccc(F)c(C#C)c56)nc(OCC)c34)C1)N2 [Example 51, 4-(5-ethoxy-8-fluoro-2-(((2R,7aS)-2-fluorotetrahydro-1H-pyrrolizin-7a(5H)-yl)methoxy)-4-((1S,5R)-1-((methoxy-d3)methyl)-3,8-diazabicyclo[3.2.1]octan-3-yl)pyrido[4,3-d]pyrimidin-7-yl)-5-ethynyl-6-fluoronaphthalen-2-ol] |  |  |  |  | AUC(0-t) ([3]; iv, 2 mg/kg): 1570 ng·h/mL; half-life ([3]; iv, 2 mg/kg): 5.4 h; AUC(0-t) ([3]; po, 10 mg/kg): 1120 ng·h/mL; bioavailability ([3]; po, 10 mg/kg): 28%; half-life ([3]; po, 10 mg/kg): 6.2 h |
| [2H]C([2H])([2H])OC[C@@]12CC[C@@H](CN(c3nc(OC[C@@]45CCCN4C[C@H](F)C5)nc4c(F)c(-c5cc(O)cc6ccc(F)c(C#C)c56)nc(OCC)c34)C1)N2 [Example 52, 4-(5-ethoxy-8-fluoro-2-(((2R,7aS)-2-fluorotetrahydro-1H-pyrrolizin-7a(5H)-yl)methoxy)-4-((1R,5S)-1-((methoxy-d3)methyl)-3,8-diazabicyclo[3.2.1]octan-3-yl)pyrido[4,3-d]pyrimidin-7-yl)-5-ethynyl-6-fluoronaphthalen-2-ol] | 50 to 500 nM | < 50 nM |  |  |  |
| C#Cc1c(F)ccc2cc(O)cc(-c3ncc4c(N5C[C@H]6CC[C@@](CC)(C5)N6)nc(OC[C@@]56CCCN5C[C@H](F)C6)nc4c3F)c12 [Example 53, 4-(4-((1S,5R)-1-ethyl-3,8-diazabicyclo[3.2.1]octan-3-yl)-8-fluoro-2-(((2R,7aS)-2-fluorotetrahydro-1H-pyrrolizin-7a(5H)-yl)methoxy)pyrido[4,3-d]pyrimidin-7-yl)-5-eth ynyl-6-fluoronaphthalen-2-ol] |  |  | 221 nM | 708 nM |  |
| C#Cc1c(F)ccc2cc(O)cc(-c3ncc4c(N5C[C@@H]6CC[C@](C=C)(C5)N6)nc(OC[C@@]56CCCN5C[C@H](F)C6)nc4c3F)c12 [Example 58, 5-ethynyl-6-fluoro-4-(8-fluoro-2-(((2R,7aS)-2-fluorotetrahydro-1H-pyrrolizin-7a(5H)-yl)methoxy)-4-((1S,5S)-1-vinyl-3,8-diazabicyclo[3.2.1]octan-3-yl)pyrido[4,3-d]pyrimidin-7-yl)naphthalen-2-ol] |  |  | 47 nM | 127 nM |  |
| C#Cc1c(F)ccc2cc(O)cc(-c3ncc4c(N5C[C@H]6CC[C@@](/C=C\F)(C5)N6)nc(OC[C@@]56CCCN5C[C@H](F)C6)nc4c3F)c12 [Example 59, 5-ethynyl-6-fluoro-4-(8-fluoro-2-(((2R,7aS)-2-fluorotetrahydro-1H-pyrrolizin-7a(5H)-yl)methoxy)-4-((1R,5R)-1-((Z)-2-fluorovinyl)-3,8-diazabicyclo[3.2.1]octan-3-yl)pyrido[4,3-d]pyrimidin-7-yl)naphthalen-2-ol] |  |  | 15 nM | 13 nM |  |
| C#Cc1c(F)ccc2cc(O)cc(-c3ncc4c(N5C[C@@H]6CC[C@](/C=C\F)(C5)N6)nc(OC[C@@]56CCCN5C[C@H](F)C6)nc4c3F)c12 [Example 60, 5-ethynyl-6-fluoro-4-(8-fluoro-2-(((2R,7aS)-2-fluorotetrahydro-1H-pyrrolizin-7a(5H)-yl)methoxy)-4-((1S,5S)-1-((Z)-2-fluorovinyl)-3,8-diazabicyclo[3.2.1]octan-3-yl)pyrido[4,3-d]pyrimidin-7-yl)naphthalen-2-ol] |  |  | 25 nM | 79 nM |  |
| C#Cc1c(F)ccc2cc(O)cc(-c3ncc4c(N5C[C@H]6CC[C@@](/C=C/F)(C5)N6)nc(OC[C@@]56CCCN5C[C@H](F)C6)nc4c3F)c12 [Example 61, 5-ethynyl-6-fluoro-4-(8-fluoro-2-(((2R,7aS)-2-fluorotetrahydro-1H-pyrrolizin-7a(5H)-yl)methoxy)-4-((1R,5R)-1-((E)-2-fluorovinyl)-3,8-diazabicyclo[3.2.1]octan-3-yl)pyrido[4,3-d]pyrimidin-7-yl)naphthalen-2-ol] |  |  | 876 nM | 816 nM |  |
| C#Cc1c(F)ccc2cc(O)cc(-c3ncc4c(N5C[C@@H]6CC[C@](/C=C/F)(C5)N6)nc(OC[C@@]56CCCN5C[C@H](F)C6)nc4c3F)c12 [Example 62, 5-ethynyl-6-fluoro-4-(8-fluoro-2-(((2R,7aS)-2-fluorotetrahydro-1H-pyrrolizin-7a(5H)-yl)methoxy)-4-((1S,5S)-1-((E)-2-fluorovinyl)-3,8-diazabicyclo[3.2.1]octan-3-yl)pyrido[4,3-d]pyrimidin-7-yl)naphthalen-2-ol] |  |  | 18 nM | 27 nM |  |
